We go through 32 molecules from US12441691B2 (Cytokinetics, Inc., priority 2020, dated 2025).

The test concerns rabbit skeletal myofibrils (fast skeletal myofibrils). Description: Activation of fast skeletal myofibrils (PUMA assay, AC1.4). Conditions: calcium at pCa25, AC1.4 = concentration at which the compound increased the enzymatic activity. The test is classed as biochemical. The method, then:
Preparation of fast skeletal myofibrils: Rabbit skeletal myofibrils were prepared based upon the method of Herrmann et al. (Biochem. 32(28):7255-7263(1993). Myofibrils were prepared from rabbit psoas muscle purchased from Pel-Freez Biologicals (Arkansas) within 2 days of ordering, stored on ice. Minced muscle was homogenized in 10 volumes of ice-cold “standard” buffer (50 mM Tris, pH 7.4, 0.1 M KOAc, 5 mM KCl, 2 mM dithiothreitol (DTT), 0.2 mM phenylmethylsulfonyl fluoride (PMSF), 10 μM leupeptin, 5 μM pepstatin, and 0.5 mM sodium azide) containing 5 mM ethylenediaminetetraacetic acid (EDTA) and 0.5% Triton X-100 using an Omni-Macro homogenizer. Myofibrils were recovered by low speed centrifugation (3000 rpm for 10 minutes) and washed 2 times in the Triton X-100 containing buffer to ensure removal of cellular membrane. Following the Triton washes, myofibrils were washed 3 times in “standard” buffer containing 2 mM magnesium acetate. A final wash in assay buffer (12 mM piperazine-1,4-bis(2-ethanesulfonic acid) (PIPES), pH 6.8, 60 mM KCl, 1 mM DTT) was performed and brought to 10% sucrose for flash freezing in liquid nitrogen and storage at −80° C.
Activation of Fast Skeletal Myofibrils: Fast fiber activators were identified by measuring the enzymatic activity of muscle myofibril preparations using the proprietary PUMA (trademark) (see, e.g., U.S. Pat. Nos. 6,410,254, 6,743,599, 7,202,051, and 7,378,254) assay system. Myofibril preparations consisted of rabbit skeletal muscle (approximately 90% fast fibers) that had been mechanically homogenized and washed with a detergent (Triton X-100) to remove cellular membranes. This preparation retained all of the sarcomeric components in a native conformation and the enzymatic activity was still regulated by calcium. Compounds were tested using a myofibril suspension and a level of calcium sufficient to increase enzymatic activity of the myofibrils to 25% of their maximal rate (termed pCa25). Enzymatic activity was tracked via a pyruvate kinase and lactate dehydrogenase-coupled enzyme system. This assay regenerates myosin-produced ADP into ATP by oxidizing NADH, producing an absorbance change at 340 nm. The buffering system was 12 mM PIPES, 2 mM MgCl2, 1 mM DTT at pH 6.8 (PM12 buffer). […] In Table 9, “Example Compound” refers to the compound labeled with the same number in Table 2.
In the case of `CC[C@H](C)[C@H]1C(=O)Nc2ccccc2[C@@H]2COC(=O)N12` (single isomer, unassigned) [Compound 36], the AC1.4 worked out at 0.09 µM.

Turning to `CC[C@H](C)[C@H]1C(=O)Nc2ccccc2[C@H](CO)N1C(N)=O` (single isomer, unassigned) [Compound 37], the AC1.4 was found to be 0.26 µM.

Regarding `CC[C@H](C)[C@H]1C(=O)Nc2ccccc2[C@H](C)N1C(=O)c1cnn(C)c1` (single isomer, unassigned) [Compound 38], the AC1.4 was found to be 0.10 µM.

Turning to `CC[C@H](C)[C@H]1C(=O)Nc2ccccc2[C@H](C)N1C(N)=O` (single isomer, unassigned) [Compound 39], the AC1.4 was 0.17 µM.

On to `CC[C@H](C)[C@H]1C(=O)Nc2ccccc2[C@@H](C(=O)OC)N1C(=O)c1cnn(C)c1` (single isomer, unassigned) [Compound 321], for which the AC1.4 is 0.12 µM.

Take `CC[C@H](C)[C@H]1C(=O)Nc2ccccc2CN1c1nccc(=O)[nH]1` [Compound 3, (S)-3-((S)-sec-Butyl)-4-(6-oxo-1,6-dihydropyrimidin-2-yl)-1,3,4,5-tetrahydro-2H-benzo[e][1,4]diazepin-2-one]: the AC1.4 was determined as 0.09 µM.

As to `CC[C@H](C)[C@H]1C(=O)Nc2ccccc2CN1c1nn[nH]n1` [Compound 4, (S)-3-((S)-sec-Butyl)-4-(2H-tetrazol-5-yl)-1,3,4,5-tetrahydro-2H-benzo[e][1,4]diazepin-2-one], the AC1.4 is 0.21 µM.

Take `CC[C@H](C)[C@H]1C(=O)Nc2ccccc2CN1C(N)=O` [Compound 5, (S)-3-((S)-sec-Butyl)-2-oxo-1,2,3,5-tetrahydro-4H-benzo[e][1,4]diazepine-4-carboxamide]: the AC1.4 is 0.08 µM.

For `CC[C@H](C)[C@H]1C(=O)Nc2cncnc2CN1C(N)=O` [Compound 11, (S)-7-((S)-sec-Butyl)-6-oxo-5,6,7,9-tetrahydro-8H-pyrimido[5,4-e][1,4]diazepine-8-carboxamide], the AC1.4 amounted to 1.30 µM.

With `CC[C@H](C)[C@H]1C(=O)Nc2cc(F)cnc2CN1C(N)=O` [Compound 13, (S)-3-((S)-sec-Butyl)-8-fluoro-2-oxo-1,2,3,5-tetrahydro-4H-pyrido[3,2-e][1,4]diazepine-4-carboxamide], the AC1.4 was 1.03 µM.

For the molecule `CC[C@H](C)[C@H]1C(=O)Nc2ccccc2-c2cnc(O)n21` [Compound 14, (S)-5-((S)-sec-Butyl)-3-hydroxy-5H-benzo[f]imidazo[1,5-d][1,4]diazepin-6(7H)-one], the AC1.4 amounted to 0.15 µM.

Regarding `CC[C@H](C)[C@H]1C(=O)Nc2ccccc2CN1C(C)=O` [Compound 15, (S)-4-Acetyl-3-((S)-sec-butyl)-1,3,4,5-tetrahydro-2H-benzo[e][1,4]diazepin-2-one], the AC1.4 turned out to be 0.27 µM.

In the case of `CC[C@H](C)[C@H]1C(=O)Nc2ccccc2CN1C(=O)c1cnn(CCO)c1` [Compound 16, (S)-3-((S)-sec-Butyl)-4-(1-(2-hydroxyethyl)-1H-pyrazole-4-carbonyl)-1,3,4,5-tetrahydro-2H-benzo[e][1,4]diazepin-2-one], the AC1.4 turned out to be 0.14 µM.

Take `CC[C@H](C)[C@H]1C(=O)Nc2ccccc2CN1C(=O)CN` [Compound 17, (S)-3-((S)-sec-Butyl)-4-glycyl-1,3,4,5-tetrahydro-2H-benzo[e][1,4]diazepin-2-one]: the AC1.4 amounted to 2.83 µM.

`CC[C@H](C)[C@H]1C(=O)Nc2ccccc2CN1C(=O)CO` [Compound 18, (S)-3-((S)-sec-Butyl)-4-(2-hydroxyacetyl)-1,3,4,5-tetrahydro-2H-benzo[e][1,4]diazepin-2-one]: the AC1.4 came out at 0.31 µM.

`CC[C@H](C)[C@H]1C(=O)Nc2ccccc2CN1C(=N)N` [Compound 19, (S)-3-((S)-sec-Butyl)-2-oxo-1,2,3,5-tetrahydro-4H-benzo[e][1,4]diazepine-4-carboximidamide]: the AC1.4 came out at 0.13 µM.

Regarding `CC[C@H](C)[C@H]1C(=O)Nc2ccccc2CN1C(=O)OC` [Compound 20, Methyl (S)-3-((S)-sec-butyl)-2-oxo-1,2,3,5-tetrahydro-4H-benzo[e][1,4]diazepine-4-carboxylate], the AC1.4 came out at 0.25 µM.

In the case of `CC[C@H](C)[C@H]1C(=O)Nc2ccccc2CN1/C(=N/C#N)N(C)C` [Compound 21, (S,E)-3-((S)-sec-Butyl)-N′-cyano-N,N-dimethyl-2-oxo-1,2,3,5-tetrahydro-4H-benzo[e][1,4]diazepine-4-carboximidamide], the AC1.4 came out at 0.18 µM.

Consider `CC[C@H](C)[C@H]1C(=O)Nc2ccccc2CN1/C(N)=N/C(=O)OC` [Compound 22, Methyl ((E)-amino((S)-3-((S)-sec-butyl)-2-oxo-1,2,3,5-tetrahydro-4H-benzo[e][1,4]diazepin-4-yl)methylene)carbamate], for which the AC1.4 worked out at 0.07 µM.

`CC[C@H](C)[C@H]1C(=O)Nc2ccccc2CN1c1nc(O)cc(=O)[nH]1` [Compound 23, (S)-3-((S)-sec-Butyl)-4-(4-hydroxy-6-oxo-1,6-dihydropyrimidin-2-yl)-1,3,4,5-tetrahydro-2H-benzo[e][1,4]diazepin-2-one]: the AC1.4 amounted to 0.16 µM.

In the case of `CC[C@H](C)[C@H]1C(=O)Nc2ccccc2CN1c1ncc(N)c(=O)[nH]1` [Compound 24, (S)-4-(5-Amino-4-hydroxypyrimidin-2-yl)-3-((S)-sec-butyl)-1,3,4,5-tetrahydro-2H-benzo[e][1,4]diazepin-2-one], the AC1.4 was determined as 0.08 µM.

With `CC[C@H](C)[C@H]1C(=O)Nc2ccccc2CN1c1noc(=O)[nH]1` [Compound 25, 3-((S)-3-((S)-sec-Butyl)-2-oxo-1,2,3,5-tetrahydro-4H-benzo[e][1,4]diazepin-4-yl)-1,2,4-oxadiazol-5(4H)-one], the AC1.4 worked out at 0.12 µM.

Take `CC[C@H](C)[C@H]1C(=O)Nc2ccccc2CN1S(C)(=O)=O` [Compound 26, (S)-3-((S)-sec-Butyl)-4-(methylsulfonyl)-1,3,4,5-tetrahydro-2H-benzo[e][1,4]diazepin-2-one]: the AC1.4 was 0.78 µM.

Consider `CC[C@H](C)[C@H]1C(=O)Nc2ccccc2CN1S(=O)(=O)N(C)C` [Compound 27, (S)-3-((S)-sec-Butyl)-N,N-dimethyl-2-oxo-1,2,3,5-tetrahydro-4H-benzo[e][1,4]diazepine-4-sulfonamide], for which the AC1.4 amounted to 0.23 µM.

As for `CC(=O)N1Cc2ccccc2NC(=O)[C@@H]1C1CCCCC1` [Compound 28, (S)-4-acetyl-3-cyclohexyl-1,3,4,5-tetrahydro-2H-benzo[e][1,4]diazepin-2-one], the AC1.4 amounted to 0.28 µM.

`NC(=O)N1Cc2ccccc2NC(=O)[C@@H]1C1CCCCC1` [Compound 29, (S)-3-Cyclohexyl-2-oxo-1,2,3,5-tetrahydro-4H-benzo[e][1,4]diazepine-4-carboxamide]: the AC1.4 is 0.22 µM.

Consider `CC[C@H](C)[C@H]1C(=O)Nc2ccccc2CN1c1c(N2CC(O)C2)c(=O)c1=O` [Compound 30, 3-((S)-3-((S)-sec-Butyl)-2-oxo-1,2,3,5-tetrahydro-4H-benzo[e][1,4]diazepin-4-yl)-4-(3-hydroxyazetidin-1-yl)cyclobut-3-ene-1,2-dione], for which the AC1.4 was determined as 0.08 µM.

In the case of `CC[C@H](C)[C@H]1C(=O)Nc2ccccc2CN1C(=O)NC` [Compound 31, (S)-3-((S)-sec-Butyl)-N-methyl-2-oxo-1,2,3,5-tetrahydro-4H-benzo[e][1,4]diazepine-4-carboxamide], the AC1.4 worked out at 0.21 µM.

Consider `CC[C@H](C)[C@H]1C(=O)Nc2ccccc2CN1C(=O)C(N)=O` [Compound 33, 2-((S)-3-((S)-sec-Butyl)-2-oxo-1,2,3,5-tetrahydro-4H-benzo[e][1,4]diazepin-4-yl)-2-oxoacetamide], for which the AC1.4 came out at 1.14 µM.

For the molecule `CC[C@H](C)[C@H]1C(=O)Nc2ccccc2CN1c1nc(C)ns1` [Compound 34, (S)-3-((S)-sec-Butyl)-4-(3-methyl-1,2,4-thiadiazol-5-yl)-1,3,4,5-tetrahydro-2H-benzo[e][1,4]diazepin-2-one], the AC1.4 is 0.09 µM.

For the molecule `CC[C@H](C)[C@H]1C(=O)Nc2ccccc2CN1c1nccs1` [Compound 35, (3S)-3-[(2S)-Butan-2-yl]-4-(1,3-thiazol-2-yl)-1,3,4,5-tetrahydro-2H-1,4-benzodiazepin-2-one], the AC1.4 amounted to 0.07 µM.

As to `CC[C@H](C)[C@H]1C(=O)Nc2ccccc2C(C(=O)NC)N1C(N)=O` (stereo partly drawn) [Compound 40, (3S)-3-((S)-sec-Butyl)-N^5-methyl-2-oxo-1,2,3,5-tetrahydro-4H-benzo[e][1,4]diazepine-4,5-dicarboxamide], the AC1.4 was 2.57 µM.
